Test results published in US12344649B2, “Modulators of parathyroid hormone receptor (PTHR1)” (Flagship Pioneering Innovations VI, LLC, priority 2019, dated 2025).
Values joined by “and” are separate entries in the source; they are usually repeats but may differ in a detail not shown here. Equal entries are not always repeated. Where no end group is shown, it is not given here.

Columns and labels:
Assay type in all cases: cell-based
[1] = target: T1, PTHR1 (Homo sapiens, UniProt Q03431); assay: cAMP accumulation assay (HTRF) in CHO-K1/Ga15/PTHR1 cells; parameters: host or cells: CHO-K1 (recombinant line CHO-K1/Ga15/PTHR1); conditions: for Emax: CHO-K1, cAMP assay, fitted dose-response maximum; for cAMP accumulation activity compared to control peptide: FIG. 3, PTH 1-34 positive control; for cAMP: relative to PTH [1-34], CHO-K1/Ga15/PTHR1 cells
T1 sequence (Q03431 27-593): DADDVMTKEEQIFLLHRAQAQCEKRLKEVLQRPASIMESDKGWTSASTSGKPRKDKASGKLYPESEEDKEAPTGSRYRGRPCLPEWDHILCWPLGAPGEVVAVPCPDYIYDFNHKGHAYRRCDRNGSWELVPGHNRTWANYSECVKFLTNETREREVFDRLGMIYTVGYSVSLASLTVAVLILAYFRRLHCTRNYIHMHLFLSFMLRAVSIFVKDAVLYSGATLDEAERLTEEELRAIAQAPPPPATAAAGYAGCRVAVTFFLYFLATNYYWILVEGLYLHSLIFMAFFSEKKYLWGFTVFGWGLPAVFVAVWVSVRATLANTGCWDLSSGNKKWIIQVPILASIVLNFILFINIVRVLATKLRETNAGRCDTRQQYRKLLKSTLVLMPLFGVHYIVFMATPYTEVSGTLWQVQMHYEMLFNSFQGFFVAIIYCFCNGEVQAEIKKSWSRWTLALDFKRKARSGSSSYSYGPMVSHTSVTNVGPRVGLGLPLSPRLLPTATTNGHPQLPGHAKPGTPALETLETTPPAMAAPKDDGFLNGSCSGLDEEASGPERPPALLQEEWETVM
Description: Cell suspension (5 μL) was seeded in 384-well plates at a density of 3,000 cells/well. Cells were treated with test samples (5 μL) or agonist (PTH 1-34) for 30 minutes at room temperature. cAMP-d2 working solution (5 μL) and anti-cAMP-Cryptate working solution (5 μL) were added to cells and incubated for 60 minutes at room temperature. The signal of the assay plate was read with PheraStar (BMG LABTECH, NC), an HTRF compatible reader.

[2] = target: T1, PTHR1; assay: β-arrestin1 recruitment BRET assay in transfected HEK293T cells; parameters: Flag (N); Life Technologies Corporation, CA (arrestin cDNA); host or cells: HEK293T (CRL-3216, ATCC); conditions: for −log10Slope: fitted curve slope; for −log10Slope / EC50: replicate plates
Description: (§1) 18-24 hours post transfection, the Luciferase substrate Coelenterazine (NanoLight Technologies, AZ) was added to cells, a baseline BRET measurement was taken after 5 minutes incubation, and then serial dilutions of peptides, diluted in PBS (with 0.5 mM MgCl2+0.1% BSA FAF), were added to cells, and BRET signal was measured every 2 minutes for 30 minutes on Hybrid Multi-Mode Reader (Synergy Neo2, BioTek, VT). Seventy-five peptides were tested in the β-arrestin recruitment assay.

[3] = target: T1, PTHR1; assay: β-arrestin2 recruitment BRET assay in transfected HEK293T cells; parameters: Flag (N); Life Technologies Corporation, CA (arrestin cDNA); host or cells: HEK293T (CRL-3216, ATCC); conditions: for β-arrestin2 assay activity compared to control peptide: FIG. 2, PTH 1-34 positive control; for β2-arrestin: relative to PTH [1-34], HEK293T cells, BRET; for −log10Slope: fitted curve slope; for −log10Slope / EC50: replicate plates
Description: as §1

[4] = cAMP accumulation, fitted curve slope, replicate plates
[5] = cAMP accumulation, replicate plates, read-out: −log10EC50 (converted)
[6] = β-arrestin2 recruitment, read-out: −log10EC50 (converted)
[7] = β-arrestin1 recruitment, read-out: −log10EC50 (converted)

Compound	cAMP accumulation activity compared to control peptide [1]	cAMP [1]	−log10Slope [1, 4]	EC50 [1, 5]	−log10Slope ([2]; β-arrestin1 recruitment)	−log10Slope ([3]; β-arrestin2 recruitment)	EC50 [3, 6]	other results
CC[C@H](C)[C@H](NC(=O)[C@H](CCC(=O)O)NC(=O)[C@H](CO)NC(=O)[C@@H](NC(=O)[C@@H](N)CO)C(C)C)C(=O)N[C@@H](CCC(N)=O)C(=O)N[C@@H](CC(C)C)C(=O)N[C@@H](CCSC)C(=O)N[C@@H](Cc1cnc[nH]1)C(=O)N[C@@H](CC(N)=O)C(=O)N[C@@H](CC(C)C)C(=O)NCC(=O)N[C@@H](CCCCN)C(=O)N[C@@H](Cc1cnc[nH]1)C(=O)N[C@@H](CC(C)C)C(=O)N[C@@H](CC(N)=O)C(=O)N[C@@H](CO)C(=O)N[C@@H](CCSC)C(=O)N[C@@H](CCC(=O)O)C(=O)N[C@@H](CCCN=C(N)N)C(=O)N[C@H](C(=O)N[C@@H](CCC(=O)O)C(=O)N[C@@H](Cc1c[nH]c2ccccc12)C(=O)N[C@@H](CC(C)C)C(=O)N[C@@H](CCCN=C(N)N)C(=O)N[C@@H](CCCCN)C(=O)N[C@@H](CCCCN)C(=O)N[C@@H](CC(C)C)C(=O)N[C@@H](CCC(N)=O)C(=O)N[C@@H](CC(=O)O)C(=O)N[C@H](C(=O)N[C@@H](Cc1cnc[nH]1)C(=O)N[C@@H](CC(N)=O)C(=O)N[C@@H](Cc1ccccc1)C(=O)O)C(C)C)C(C)C [Teriparatide, reference compound]	increased activity as compared to the control peptide	++	–	–	–	–	–	Emax [1]: 100%; −log10Slope ([1]; cAMP accumulation, fitted curve slope, replicate plates, listed as R1-101): −4.492 and −4.864 and −4.046; β1-arrestin ([2]; relative to PTH [1-34], HEK293T cells, BRET): +; −log10Slope ([2]; β-arrestin1 recruitment, listed as R1-101): −2.906 and −3.664 and −1.356; β-arrestin2 assay activity compared to control peptide [3]: increased activity as compared to control; β2-arrestin [3]: ++; −log10Slope ([3]; β-arrestin2 recruitment, listed as R1-101): −3.44 and −3.409 and −3.396
AVAEIQLMHQRAKWAIQEIGIKITRELLERYL [Peptide R2-42]	–	–	13.11	285 nM	−1.503 and −1.149 and −5.574	−2.7849 and −2.122 and −2.912	8.07 nM and 4.22 nM and 23.7 nM	β-arrestin2 assay activity compared to control peptide [3]: activity similar to the control peptide; β2-arrestin [3]: +
AVAEIQLMHQRAKWDLLIELVKLLHELLKEYI [Peptide R2-40]	increased activity as compared to the control peptide	++	−2.205	0.00583 nM	−4.125 and −1.577	−3.733 and −2.83	856 nM and 1410 nM	EC50 [2, 7]: 571 nM and 3600 nM
AVAEIQLMHQRAKWDVLIELAKLLAELLRRYH [Peptide R2-47]	increased activity as compared to the control peptide	++	12	–	−1.834 and −2.2235 and −1.644	−2.078 and −1.716 and −1.634	–	EC50 [1]: 0.591 nM; EC50 ([2]; −log10EC50, β-arrestin1 recruitment): 1430 nM and 651 nM and 3640 nM; EC50 ([3]; −log10EC50, β-arrestin2 recruitment): 1370 nM and 1710 nM and 3480 nM
AVAEIQLMHQRAKWEIQEIGIKITLDLLQTLK [Peptide R2-41]	increased activity as compared to the control peptide	++	−2.911	0.0557 nM	−8.214	−4.333	940 nM	EC50 [2, 7]: 3.83 nM
AVAEIQLMHQRAKWEIQEIGIKITLELLKEYI [Peptide R2-37]	increased activity as compared to the control peptide	–	−5.899	0.813 nM	−1.386 and −0.8678 and −5.353	−4.144 and −2.117 and −4.372	386 nM and 1380 nM and 497 nM	–
AVAEIQLMHQRAKWELQEIGIKITLDLLEAYL [Peptide R2-39]	–	–	–	–	−0.2801 and −4.065 and −4.878	−5.314 and −3.58 and −2.2339	–	EC50 [2, 7]: 775 nM and 594 nM
AVAEIQLMHQRAKWKQELELEEKNKKILEDVY [Peptide R2-32]	–	–	−14.3219	312 nM	–	–	–	–
AVAEIQLMHQRAKWRAEYELREMLLRLLEEIF [Peptide R1-96]	activity similar to the control peptide	+	–	–	–	–	–	Emax [1]: 99.7%; EC50 ([1]; cAMP assay, fitted dose-response curve, read-out: −log10EC50 (converted)): 9.86 nM; −log10Slope ([1]; cAMP assay, fitted dose-response slope): −3.352
AVAEIQLMHQRAKWSILEELLKILTALLDEYI [Peptide R2-46]	–	–	–	–	−3.506 and −2.782 and −5.541	−3.413 and −1.882 and −2.306	539 nM and 187 nM and 550 nM	EC50 [2, 7]: 565 nM and 447 nM and 394 nM
AVATIQLMTDIAKIRAEYELREMLLRLLEEIF [Peptide R2-6]	–	–	−0.3341	–	–	–	–	–
GIAVFTIMHLRIYLRAEYELREMLLRLLEEIF [Peptide R2-17]	–	–	−2.077	448000 nM	–	–	–	–
GIAVITIMIDYAKLRAEYELREMLLRLLEEIF [Peptide R2-22]	increased activity as compared to the control peptide	++	7.165	–	–	–	–	EC50 [1]: 0.0709 nM
GIAVLTILDLRAKLRAEYELREMLLRLLEEIF [Peptide R2-14]	increased activity as compared to the control peptide	++	2.196	–	–	–	–	EC50 [1]: 0.00521 nM
GLAALTIGLLRAKLRAEYELREMLLRLLEEIF [Peptide R2-24]	increased activity as compared to the control peptide	++	5.587	–	–	–	–	EC50 [1]: 0.0424 nM
